This data set is described as follows: Open-circulating cooling water system, change over time in combined and free chlorine (Example 4 / Comparative Example 1). In kind it is physicochemical. As to conditions: for Combined chlorine: total residual chlorine minus free chlorine (DPD). The source says: In this open-circulating cooling water system, cooling water is supplied from a cooling tower 1 to a heat exchanger 3 via a cooling water pipe 2 and a pump P, and is returned to the cooling tower 1 via a cooling water pipe 4. The cooling tower 1 (refrigeration capacity: 400 RT, water storage capacity: 30 m^3) was operated at a concentration factor of 5. The cooling tower 1 has a fan F and contains therein air-conditioning cooling water W. The free chlorine concentration of the air-conditioning cooling water W is measured by means of a sensor S and controlled by means of a free chlorine control section 5 and a combined chlorine control section 6. The free chlorine control section 5 includes a chemical tank 51 and a chemical feed inlet 52. Combined chlorine control section 6 includes a chemical tank 61 and a chemical feed inlet 62. The amount of free chlorine or combined chlorine is controlled on the basis of the free chlorine concentration as measured by means of the sensor S employing an ORP electrode.
The amount of free chlorine was controlled through addition of a hypochlorite salt. Chlorosulfamic acid was employed as combined chlorine.
In the water system, chlorosulfamic acid was added so that the chlorine concentration was adjusted to 15 mg-Cl/L with respect to blowing down the cooling water. In the water system, the amount of the hypochlorite salt added was controlled by means of the sensor S so that free chlorine concentration was 0.5 mg-Cl/L. Combined chlorine concentration was measured through the DPD method (determined by use of the following relation: combined chlorine concentration=total residual chlorine concentration−free chlorine concentration).
Flaked slime was non-forcedly discharged through blowing down at an intensity according to the concentration factor, and a forced removal of the slime (e.g., cleaning) was not carried out. Thus, the water system was continuously operated, and change over time in combined chlorine concentration and free chlorine concentration in the water system was observed.
The water system was continuously operated under the same conditions as in Example 4 (i.e., chlorosulfamic acid was added so that the chlorine concentration was adjusted to 15 mg-Cl/L with respect to blowing down the cooling water), except that free chlorine concentration was not controlled.

Consider `O=S(=O)(O)NCl` [Comparative Example 1, Chlorosulfamic acid], for which the “Combined chlorine concentration, level over the operation period” value (operation period up to 20 days) was “maintained at low level”. In addition, the Free chlorine stood at 0.0 mg/L (period 1 days); 0.0 mg/L (period 2 days); 0.1 mg/L (period 8 days); 0.0 mg/L (period 14 days); 0.1 mg/L (period 20 days). For the same compound, the Combined chlorine was found to be 3 mg/L (period 1 days); 4 mg/L (period 2 days); 3 mg/L (period 8 days); 2 mg/L (period 14 days); 4 mg/L (period 20 days).

For the origin of these results see US10421676B2, “Bactericidal/algicidal method” (priority 2007, dated 2019).
